# Assay results as given in US10336721B2, “Biaryltriazole inhibitors of macrophage migration inhibitory factor” (YALE UNIVERSITY, priority 2015, dated 2019).
# Target: human MIF (Homo sapiens (Human), UniProt P14174)
# Test: Inhibition of tautomerase activity of human MIF (HPP substrate)
# Type: biochemical
# Settings: MIF tautomerase, HPP substrate, 50 nM MIF
# Sequence of human MIF (P14174 2-115): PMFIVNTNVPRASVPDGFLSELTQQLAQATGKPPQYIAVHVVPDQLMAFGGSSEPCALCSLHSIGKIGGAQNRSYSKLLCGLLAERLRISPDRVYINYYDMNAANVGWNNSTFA
row,SMILES,Ki
1,"Cc1cc2cc(OCCCN3CCOCC3)ccc2nc1-c1cn(-c2ccc(O)cc2)nn1 [Example 20, 4-(4-(3-Methyl-6-(3-morpholinopropoxy)quinolin-2-yl)-1H-1,2,3-triazol-1-yl)phenol]",3120 nM
2,"Fc1ccc(-n2cc(-c3ccc4cc(OCCOCCN5CCOCC5)ccc4n3)nn2)cc1 [Example 23, 4-(2-(2-((2-(1-(4-Fluorophenyl)-1H-1,2,3-triazol-4-yl)quinolin-6-yl)oxy)ethoxy)ethyl)morpholine]",29600 nM
3,"Oc1ccc(-n2cc(-c3ccc4ccc(OCCOCCN5CCOCC5)cc4n3)nn2)cc1 [Example 29, 4-(4-(7-(2-(2-Morpholinoethoxy)ethoxy)quinolin-2-yl)-1H-1,2,3-triazol-1-yl)phenol]",850 nM
4,"Oc1ccc(-n2cc(-c3ccc4ccc(OCCOCCN5CCOCC5)cc4n3)nn2)cc1F [Example 30, 2-Fluoro-4-(4-(7-(2-(2-morpholinoethoxy)ethoxy)quinolin-2-yl)-1H-1,2,3-triazol-1-yl)phenol]",290 nM
5,"COCCOc1ccc2nc(-c3cn(-c4ccc(O)cc4)nn3)ncc2c1 [Example 31, 4-(4-(6-(2-Methoxyethoxy)quinazolin-2-yl)-1H-1,2,3-triazol-1-yl)phenol]",2350 nM
6,"Oc1c(F)cc(-n2cc(-c3ccc4cc(OCCOCCN5CCOCC5)ccc4n3)nn2)cc1F [Example 33, 2,6-Difluoro-4-(4-(6-(2-(2-morpholinoethoxy)ethoxy)quinolin-2-yl)-1H-1,2,3-triazol-1-yl)phenol]",3750 nM
7,"Oc1ccc(-n2cc(-c3ccc4c(Oc5cccc(OCCOCCN6CCOCC6)c5)cccc4n3)nn2)cc1F [Example 38, 2-Fluoro-4-(4-(5-(3-(2-(2-morpholinoethoxy)ethoxy)phenoxy)quinolin-2-yl)-1H-1,2,3-triazol-1-yl)phenol]",128 nM
8,"O=C(O)COc1ccc2ccc(-c3cn(-c4ccc(O)c(F)c4)nn3)nc2c1 [Example 41, 2-((2-(1-(3-Fluoro-4-hydroxyphenyl)-1H-1,2,3-triazol-4-yl)quinolin-7-yl)oxy)acetic acid]",2240 nM
9,"O=C(O)CCCOc1ccc2ccc(-c3cn(-c4ccc(O)c(F)c4)nn3)nc2c1 [Example 42, 4-((2-(1-(3-Fluoro-4-hydroxyphenyl)-1H-1,2,3-triazol-4-yl)quinolin-7-yl)oxy)butanoic acid]",43 nM

# The remaining lines, values ahead:
row,Ki,SMILES
1,8900 nM,"COCCOc1ccc2nc(-c3cn(-c4ccc(F)cc4)nn3)ccc2c1 [Example 3, 2-(1-(4-Fluorophenyl)-1H-1,2,3-triazol-4-yl)-6-(2-methoxyethoxy)quinoline]"
2,7300 nM,"Cc1cc2ccccc2nc1-c1cn(-c2ccc(O)cc2)nn1 [Example 11, 4-(4-(3-Methylquinolin-2-yl)-1H-1,2,3-triazol-1-yl)phenol]"
3,2300 nM,"Cc1cc(-c2cn(-c3ccc(O)cc3)nn2)nc2ccccc12 [Example 12, 4-(4-(4-Methylquinolin-2-yl)-1H-1,2,3-triazol-1-yl)phenol]"
4,56000 nM,"COc1cccc2ccc(-c3cn(-c4ccc(F)cc4)nn3)nc12 [Example 14, 2-(1-(4-Fluorophenyl)-1H-1,2,3-triazol-4-yl)-8-methoxyquinoline]"
5,64000 nM,"COCCOc1cccc2ccc(-c3cn(-c4ccc(F)cc4)nn3)nc12 [Example 15, 2-(1-(4-Fluorophenyl)-1H-1,2,3-triazol-4-yl)-8-(3-methoxyethoxy)quinoline]"
6,2950 nM,"Oc1ccc(-n2cc(-c3ccc4cccc(Oc5ccccc5)c4n3)nn2)cc1 [Example 17, 4-(4-(8-Phenoxyquinolin-2-yl)-1H-1,2,3-triazol-1-yl)phenol]"
7,370 nM,"Oc1ccc(-n2cc(-c3ccc4c(Oc5ccccc5)cccc4n3)nn2)cc1 [Example 18, 4-(4-(5-Phenoxyquinolin-2-yl)-1H-1,2,3-triazol-1-yl)phenol]"
8,1950 nM,"Oc1ccc(-n2cc(-c3ccc4cc(OCCCN5CCOCC5)ccc4n3)nn2)cc1 [Example 19, 4-(4-(6-(3-Morpholinopropoxy)quinolin-2-yl)-1H-1,2,3-triazol-1-yl)phenol]"
9,360 nM,"COCCOc1ccc(Oc2cccc3nc(-c4cn(-c5ccc(O)cc5)nn4)ccc23)cc1 [Example 24, 4-(4-(5-(4-(2-Methoxyethoxy)phenoxy)quinolin-2-yl)-1H-1,2,3-triazol-1-yl)phenol]"
10,82 nM,"COCCOc1cccc(Oc2cccc3nc(-c4cn(-c5ccc(O)c(F)c5)nn4)ccc23)c1 [Example 25, 2-Fluoro-4-(4-(5-(3-(2-methoxyethoxy)phenoxy)quinolin-2-yl)-1H-1,2,3-triazol-1-yl)phenol]"
11,1480 nM,"Oc1ccc(-n2cc(-c3ccc4cccnc4n3)nn2)cc1 [Example 26, 4-(4-(1,8-Naphthyridin-2-yl)-1H-1,2,3-triazol-1-yl)phenol]"
12,110 nM,"O=C(O)c1ccc(Oc2cccc3nc(-c4cn(-c5ccc(O)c(F)c5)nn4)ccc23)cc1 [Example 35, 4-((2-(1-(3-Fluoro-4-hydroxyphenyl)-1H-1,2,3-triazol-4-yl)quinolin-5-yl)oxy)benzoic acid]"
13,4930 nM,"O=C(O)c1cccc(Oc2cccc3nc(-c4cn(-c5ccc(F)c(F)c5)nn4)ccc23)c1 [Example 36, 3-((2-(1-(3,4-Difluorophenyl)-1H-1,2,3-triazol-4-yl)quinolin-5-yl)oxy)benzoic acid]"
14,568 nM,"NCc1cccc(Oc2cccc3nc(-c4cn(-c5ccc(O)c(F)c5)nn4)ccc23)c1 [Example 37, 4-(4-(5-(3-(Aminomethyl)phenoxy)quinolin-2-yl)-1H-1,2,3-triazol-1-yl)-2-fluorophenol]"
15,296 nM,"O=C(O)c1ccc(Oc2cccc3ccc(-c4cn(-c5ccc(O)c(F)c5)nn4)nc23)cc1 [Example 39, 4-((2-(1-(3-Fluoro-4-hydroxyphenyl)-1H-1,2,3-triazol-4-yl)quinolin-8-yl)oxy)benzoic acid]"
16,112 nM,"O=C(O)c1cccc(Oc2cccc3ccc(-c4cn(-c5ccc(O)c(F)c5)nn4)nc23)c1 [Example 40, 3-((2-(1-(3-Fluoro-4-hydroxyphenyl)-1H-1,2,3-triazol-4-yl)quinolin-8-yl)oxy)benzoic acid]"

# Same assay, conditions: read-out: % inhibition at 10 μM
row,SMILES,inhibition at 10 µM
1,"COCCOc1ccc(-c2cn(-c3ccc(Cl)cc3)nn2)nc1 [Example 4, 2-(1-(4-Chlorophenyl)-1H-1,2,3-triazol-4-yl)-5-(2-methoxyethoxy)pyridine]",3%
2,"COCCOc1ccc2nc(-c3cn(-c4ccc(OC)cc4)nn3)ccc2c1 [Example 6, 6-(2-Methoxyethoxy)-2-(1-(4-methoxyphenyl)-1H-1,2,3-triazol-4-yl)quinoline]",0%
3,"COCCOc1ccc2nc(-c3cn(-c4ccc(C#N)cc4)nn3)ccc2c1 [Example 7, 4-(4-(6-(2-Methoxyethoxy)quinolin-2-yl)-1H-1,2,3-triazol-1-yl)benzonitrile]",8%
4,"COCCOc1ccc2nc(-c3cn(-c4ccc(O)c(C)c4)nn3)ccc2c1 [Example 9, 4-(4-(6-(2-Methoxyethoxy)quinolin-2-yl)-1H-1,2,3-triazol-1-yl)-2-methylphenol]",15%
5,"COCCOc1ccc2nc(-c3cn(-c4ccc(O)c(OC)c4)nn3)ccc2c1 [Example 10, 2-Methoxy-4-(4-(6-(2-methoxyethoxy)quinolin-2-yl)-1H-1,2,3-triazol-1-yl)phenol]",8%

# Second part, the compound after the results:
row,inhibition at 10 µM,SMILES
1,13%,"COCCOc1ccc2nc(-c3cn(-c4ccc(N)cc4)nn3)ccc2c1 [Example 5, 4-(4-(6-(2-Methoxyethoxy)quinolin-2-yl)-1H-1,2,3-triazol-1-yl)aniline]"
2,0%,"COCCOc1ccc2nc(-c3cn(-c4ccc(C(N)=O)cc4)nn3)ccc2c1 [Example 8, 4-(4-(6-(2-Methoxyethoxy)quinolin-2-yl)-1H-1,2,3-triazol-1-yl)benzamide]"
3,16%,"Oc1ccc(-n2cc(-c3ccc4cccc(Cl)c4n3)nn2)cc1 [Example 13, 4-(4-(8-Chloroquinolin-2-yl)-1H-1,2,3-triazol-1-yl)phenol]"
4,21%,"COc1ccc(-c2cccc3ccc(-c4cn(-c5ccc(O)cc5)nn4)nc23)cc1 [Example 16, 4-(4-(8-(4-Methoxyphenyl)quinolin-2-yl)-1H-1,2,3-triazol-1-yl)phenol]"
5,9%,"Clc1ccc(-n2cc(-c3ccc4cccnc4n3)nn2)cc1 [Example 27, 2-(1-(4-Chlorophenyl)-1H-1,2,3-triazol-4-yl)-1,8-naphthyridine]"

# Tested on: not listed separately
# Test: Aqueous solubility
# Type: physicochemical
# Settings: aqueous solvent (not further specified), μg compound/mL solvent
row,SMILES,solubility
1,"Oc1ccc(-n2cc(-c3ccc4cc(OCCOCCN5CCOCC5)ccc4n3)nn2)cc1 [Example 21, 4-(4-(6-(2-(2-Morpholinoethoxy)ethoxy)quinolin-2-yl)-1H-1,2,3-triazol-1-yl)phenol]",48.5 µg/mL
2,"Oc1ccc(-n2cc(-c3ccc4cc(OCCOCCN5CCOCC5)ccc4n3)nn2)cc1F [Example 22, 2-Fluoro-4-(4-(6-(2-(2-morpholinoethoxy)ethoxy)quinolin-2-yl)-1H-1,2,3-triazol-1-yl)phenol]",27.2 µg/mL
3,"NCCOCCOc1ccc2nc(-c3cn(-c4ccc(O)c(F)c4)nn3)ccc2c1 [Example 34, 4-(4-(6-(2-(2-Aminoethoxy)ethoxy)quinolin-2-yl)-1H-1,2,3-triazol-1-yl)-2-fluorophenol]",9.1 µg/mL
4,"O=C(O)CCCOc1ccc2nc(-c3cn(-c4ccc(O)c(F)c4)nn3)ccc2c1 [Example 43, 4-((2-(1-(3-Fluoro-4-hydroxyphenyl)-1H-1,2,3-triazol-4-yl)quinolin-6-yl)oxy)butanoic acid]",19.2 µg/mL

# Continued, values first:
row,solubility,SMILES
1,2.2 µg/mL,"Oc1ccc(-n2cc(-c3ccc4ccccc4n3)nn2)cc1 [Example 1, 4-(4-(Quinolin-2-yl)-1H-1,2,3-triazol-1-yl)phenol]"
2,3.6 µg/mL,"COCCOc1ccc2nc(-c3cn(-c4ccc(O)cc4)nn3)ccc2c1 [Example 2, 4-(4-(6-(2-Methoxyethoxy)quinolin-2-yl)-1H-1,2,3-triazol-1-yl)phenol]"
3,13.9 µg/mL,"NCCOCCOc1ccc2nc(-c3cn(-c4ccc(O)cc4)nn3)ccc2c1 [Example 28, 4-(4-(6-(2-(2-Aminoethoxy)ethoxy)quinolin-2-yl)-1H-1,2,3-triazol-1-yl)phenol]"
4,47.2 µg/mL,"O=C(O)c1cccc(Oc2cccc3nc(-c4cn(-c5ccc(O)c(F)c5)nn4)ccc23)c1 [Example 32, 3-((2-(1-(3-Fluoro-4-hydroxyphenyl)-1H-1,2,3-triazol-4-yl)quinolin-5-yl)oxy)benzoic acid]"
